Results reported in patent publication US10968266B2, “GIP peptide analogues” (University of Copenhagen, priority 2014, dated 2021).

Tests used:
perfused rat pancreata = test: Somatostatin secretion from isolated perfused rat pancreas; details: 1 nM hGIP or 100 nM GIP(3-30), 7 mM glucose
Protocol: Non-fasted rats were anaesthetized with an IP injection of Hypnorm/Dormicum and the pancreas was dissected and perfused in situ. […] All other aortic branches were ligated. The venous effluent was collected for 1 min intervals via an obstructing cannula inserted into the portal vein, and stored at −20° C. until analysis. The flow rate was kept constant at 4 ml/min. The perfusion medium was continuously gassed with a 95% O2/5% CO2 mixture to achieve pH 7.4, and maintained at 37° C. during the entire experiment.
Pancreatic somatostatin concentrations in venous effluent were analysed by RIA. Somatostatin immunoreactivity was determined using antiserum 1758, which was raised in rabbits against synthetic cyclic somatostatin and recognizes both somatostatin-14 and somatostatin-28 [37, 38].

human GIP receptor [1] = target: T1, human GIP receptor (Homo sapiens, UniProt P48546); test: Competitive binding assay with 125I-labelled GIP radioligands, COS-7 cells transfected with human GIP receptor (Example 7); details: for Competitive binding fold (fold change of GIP(1-30)NH2 affinity): radioligand 125I-GIP(1-42); for Competitive binding fold (fold change of GIP(1-30)NH2 affinity) / fold change GIP(1-30)NH2: relative to GIP(1-30)NH2
T1 construct: host or cells: COS-7 cells, transient transfection (calcium phosphate precipitation), pCMV-Script vector
T1 sequence (P48546 22-466): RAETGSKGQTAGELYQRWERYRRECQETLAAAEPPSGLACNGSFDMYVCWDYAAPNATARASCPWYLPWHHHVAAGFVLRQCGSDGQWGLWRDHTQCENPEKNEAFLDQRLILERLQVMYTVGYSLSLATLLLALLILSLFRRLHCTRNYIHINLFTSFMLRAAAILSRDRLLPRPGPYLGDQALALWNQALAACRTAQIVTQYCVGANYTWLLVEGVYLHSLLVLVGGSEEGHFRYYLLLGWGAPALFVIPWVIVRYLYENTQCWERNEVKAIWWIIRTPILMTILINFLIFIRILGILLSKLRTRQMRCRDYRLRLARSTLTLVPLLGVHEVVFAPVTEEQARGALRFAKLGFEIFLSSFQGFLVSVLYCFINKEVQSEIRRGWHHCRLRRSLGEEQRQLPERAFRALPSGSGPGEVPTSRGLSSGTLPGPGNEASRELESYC
Protocol: Transfection of COS-7 cells was performed using the calcium phosphate precipitation method with chloroquine addition as previously described (Kissow et al., 2012). […] Nonspecific binding was determined as the binding of radioligand to untransfected cells. All determinations were made in duplicates, and all experiments repeated at least three times. The samples were analyzed for radioactivity using a Wallac Wizard 1470 Gamma Counter (GMI Inc., Minnesota, USA). The number “n” refers to individual experiments with separate transfections although from same cell line. IC50, EC50, and Kd/Ki values were determined by nonlinear regression. […] Statistical analyses (unpaired t-tests) of two parameters were also performed with GraphPad Prism 6.0. The calculations of Bmax and Ki values were based on the formula for one class of binding sites in homologous competition binding studies and the Cheng Prussoffs formula, respectively (DeBlasi et al., 1989). Kd is the dissociation constant determined by homologous receptor binding. […] Schild plots were performed with log (DR-1) (ordinate) and log(antagonist concentration) (abscissa) to estimate the slopes and Ki values (Lazareno and Birdsall, 1993).

human GIP receptor [2] = target: T1, human GIP receptor; test: cAMP accumulation assay (agonism, antagonism, Schild analysis), COS-7 cells transfected with human GIP receptor (Example 7); assay type: cell-based; details: for Slope of Schild plot: GIP(1-42) dose-response curves with fixed antagonist concentrations
Protocol: COS-7 cells were grown in 10% CO2 and at 37° C. in Dulbecco's modified Eagle's medium 1885 supplemented with 10% fetal bovine serum, 2 mM glutamine, 180 units/ml penicillin, and 45 µg/ml streptomycin. Transfection of COS-7 cells was performed using the calcium phosphate precipitation method with chloroquine addition as previously described (Kissow et al., 2012).
Two days after transfection the cells were washed once with HEPES buffered saline (HBS) and incubated with HBS and 0.5 mM 3-isobutyl-1-methylxanthine (IBMX) for 30 minutes at 37° C. […] After ligand incubation, the HitHunter™ cAMP XS assay (an enzyme fragment complementation-based assay, DiscoveRx, Birmingham, United Kingdom) was carried out according to the manufacturer's instructions. All experiments were made in duplicates, and repeated at least three times. Luminescence was measured by Perkin Elmer™ EnVision 2104 Multilabled reader (Skovlunde, Danmark). In brief, the cells were lysed in the wells, the enzyme fragment-cAMP-antibody, an enzyme fragment and the enzyme substrates were added followed by 1 hour incubation at room temperature on shaker tray. The other enzyme fragment was added to the wells and incubated for 4 hours on shaker tray followed by measurements of luminescence. The ligand-induced cAMP competed with the binding of antibody to the first enzyme fragment and left the two fragments to fuse. The enzyme complex hydrolyzed the substrates and yielded luminescence. The number “n” refers to individual experiments with separate transfections although from same cell line.
IC50, EC50, and Kd/Ki values were determined by nonlinear regression. These, as well as maximal binding capacity (Bmax) values and Schild plot analysis were carried out with the GraphPad Prism 6.0 software (GraphPad, San Diego, Calif., USA) and Microsoft Excel™. Statistical analyses (unpaired t-tests) of two parameters were also performed with GraphPad Prism 6.0. The calculations of Bmax and Ki values were based on the formula for one class of binding sites in homologous competition binding studies and the Cheng Prussoffs formula, respectively (DeBlasi et al., 1989). Kd is the dissociation constant determined by homologous receptor binding. […] Schild plots were performed with log (DR-1) (ordinate) and log(antagonist concentration) (abscissa) to estimate the slopes and Ki values (Lazareno and Birdsall, 1993).

[3] = inhibition of GIP(1-42) at 50-80% of max receptor activation

CC[C@H](C)[C@H](NC(=O)[C@H](CO)NC(=O)[C@H](Cc1ccc(O)cc1)NC(=O)[C@H](CC(=O)O)NC(=O)[C@H](CO)NC(=O)[C@@H](NC(=O)[C@H](Cc1ccccc1)NC(=O)[C@@H](NC(=O)CNC(=O)[C@H](CCC(=O)O)NC(=O)[C@H](C)NC(=O)[C@@H](N)Cc1ccc(O)cc1)[C@@H](C)O)[C@@H](C)CC)C(=O)N[C@@H](C)C(=O)N[C@@H](CCSC)C(=O)N[C@@H](CC(=O)O)C(=O)N[C@@H](CCCCN)C(=O)N[C@H](C(=O)N[C@@H](Cc1c[nH]cn1)C(=O)N[C@@H](CCC(N)=O)C(=O)N[C@@H](CCC(N)=O)C(=O)N[C@@H](CC(=O)O)C(=O)N[C@@H](Cc1ccccc1)C(=O)N[C@H](C(=O)N[C@@H](CC(N)=O)C(=O)N[C@@H](Cc1c[nH]c2ccccc12)C(=O)N[C@@H](CC(C)C)C(=O)N[C@@H](CC(C)C)C(=O)N[C@@H](C)C(=O)N[C@@H](CCC(N)=O)C(=O)N[C@@H](CCCCN)C(=O)NCC(=O)N[C@@H](CCCCN)C(=O)N[C@@H](CCCCN)C(=O)N[C@@H](CC(N)=O)C(=O)N[C@@H](CC(=O)O)C(=O)N[C@@H](Cc1c[nH]c2ccccc12)C(=O)N[C@@H](CCCCN)C(=O)N[C@@H](Cc1c[nH]cn1)C(=O)N[C@@H](CC(N)=O)C(=O)N[C@H](C(=O)N[C@H](C(=O)N[C@@H](CCC(N)=O)C(=O)O)[C@@H](C)O)[C@@H](C)CC)C(C)C)[C@@H](C)CC [GIP(1-42)] was tested. Which “Somatostatin secretion induced by the peptide alone” value (perfused rat pancreata) did it give?
Its value is “robust somatostatin secretion”.

How did the “Competitive binding fold (fold change of GIP(1-30)NH2 affinity)” value (human GIP receptor [1]) turn out when CC[C@H](C)[C@H](NC(=O)[C@H](CO)NC(=O)[C@H](Cc1ccc(O)cc1)NC(=O)[C@H](CC(=O)O)NC(=O)[C@H](CO)NC(=O)[C@@H](NC(=O)[C@H](Cc1ccccc1)NC(=O)[C@@H](N)[C@@H](C)O)[C@@H](C)CC)C(=O)N[C@@H](C)C(=O)N[C@@H](CCSC)C(=O)N[C@@H](CC(=O)O)C(=O)N[C@@H](CCCCN)C(=O)N[C@H](C(=O)N[C@@H](Cc1c[nH]cn1)C(=O)N[C@@H](CCC(N)=O)C(=O)N[C@@H](CCC(N)=O)C(=O)N[C@@H](CC(=O)O)C(=O)N[C@@H](Cc1ccccc1)C(=O)N[C@H](C(=O)N[C@@H](CC(N)=O)C(=O)N[C@@H](Cc1c[nH]c2ccccc12)C(=O)N[C@@H](CC(C)C)C(=O)N[C@@H](CC(C)C)C(=O)N[C@@H](C)C(=O)N[C@@H](CCC(N)=O)C(=O)N[C@@H](CCCCN)C(N)=O)C(C)C)[C@@H](C)CC [GIP(5-30)NH2] was run?
Its value is 6.6 fold.

What about the “Type of antagonism (Schild analysis)” value (human GIP receptor [2]) of the same compound?
The value was “pure competitive antagonists”.

And the “Slope of Schild plot” value (human GIP receptor [2])?
The value was 1.1±0.04.

What about the IC50 (human GIP receptor [2]; [3]) of the same compound?
The IC50 was 11.9 nM.

CC[C@H](C)[C@H](NC(=O)[C@H](CO)NC(=O)[C@H](Cc1ccc(O)cc1)NC(=O)[C@H](CC(=O)O)NC(=O)[C@H](CO)NC(=O)[C@@H](NC(=O)[C@@H](N)Cc1ccccc1)[C@@H](C)CC)C(=O)N[C@@H](C)C(=O)N[C@@H](CCSC)C(=O)N[C@@H](CC(=O)O)C(=O)N[C@@H](CCCCN)C(=O)N[C@H](C(=O)N[C@@H](Cc1c[nH]cn1)C(=O)N[C@@H](CCC(N)=O)C(=O)N[C@@H](CCC(N)=O)C(=O)N[C@@H](CC(=O)O)C(=O)N[C@@H](Cc1ccccc1)C(=O)N[C@H](C(=O)N[C@@H](CC(N)=O)C(=O)N[C@@H](Cc1c[nH]c2ccccc12)C(=O)N[C@@H](CC(C)C)C(=O)N[C@@H](CC(C)C)C(=O)N[C@@H](C)C(=O)N[C@@H](CCC(N)=O)C(=O)N[C@@H](CCCCN)C(N)=O)C(C)C)[C@@H](C)CC [GIP(6-30)NH2, reference compound] was tested. Which “fold change GIP(1-30)NH2” value (human GIP receptor [1]; radioligand 125I-GIP(1-30)NH2) did it give?
Its value is 3502 fold.

What about the IC50 (human GIP receptor [1]; radioligand 125I-GIP(2-30)NH2) of the same compound?
The IC50 was 340 nM.

What about the “fold change GIP(1-30)NH2” value (human GIP receptor [1]; radioligand 125I-GIP(2-30)NH2) of the same compound?
Its value is 707 fold.

What about the IC50 (human GIP receptor [1]; radioligand 125I-GIP(3-30)NH2) of the same compound?
The IC50 was 370 nM.

What about the “fold change GIP(1-30)NH2” value (human GIP receptor [1]; radioligand 125I-GIP(3-30)NH2) of the same compound?
The value was 223 fold.

What about the “Slope of Schild plot” value (human GIP receptor [2]) of the same compound?
The value was 0.38±0.13.

And the IC50 (human GIP receptor [2]; [3])?
The IC50 was 342 nM.

And the “cAMP accumulation logIC50 ± SEM (antagonism)” value (human GIP receptor [2]; inhibition of GIP(1-42) at 50-80% of max receptor activation, given with negative sign)?
Its value is −6.47 ± 0.6.

CC[C@H](C)[C@H](NC(=O)[C@H](CO)NC(=O)[C@H](Cc1ccc(O)cc1)NC(=O)[C@H](CC(=O)O)NC(=O)[C@@H](N)CO)C(=O)N[C@@H](C)C(=O)N[C@@H](CCSC)C(=O)N[C@@H](CC(=O)O)C(=O)N[C@@H](CCCCN)C(=O)N[C@H](C(=O)N[C@@H](Cc1c[nH]cn1)C(=O)N[C@@H](CCC(N)=O)C(=O)N[C@@H](CCC(N)=O)C(=O)N[C@@H](CC(=O)O)C(=O)N[C@@H](Cc1ccccc1)C(=O)N[C@H](C(=O)N[C@@H](CC(N)=O)C(=O)N[C@@H](Cc1c[nH]c2ccccc12)C(=O)N[C@@H](CC(C)C)C(=O)N[C@@H](CC(C)C)C(=O)N[C@@H](C)C(=O)N[C@@H](CCC(N)=O)C(=O)N[C@@H](CCCCN)C(N)=O)C(C)C)[C@@H](C)CC [GIP(8-30)NH2] was tested. Which “Competitive binding fold (fold change of GIP(1-30)NH2 affinity)” value (human GIP receptor [1]) did it give?
The value was 89 fold.

What about the IC50 (human GIP receptor [2]; [3]) of the same compound?
Its IC50 is 133 nM.
